We go through 40 compounds from ChEMBL document CHEMBL1143272, “(S)-N-(5-Chlorothiophene-2-sulfonyl)-beta,beta-diethylalaninol a Notch-1-sparing gamma-secretase inhibitor” (Bioorg Med Chem Lett, 2009).

The structures appear in SMILES notation. Values after ≈ are worked out from the molar mass of the structure shown.

Series [1] is described as follows: Inhibition of gamma-secretase-mediated amyloid beta 40/42 accumulation assessed as beta-CTF cleavage by cell-based sandwich ELISA.
The target in series [2] is Cytochrome P450 2C9 (Homo sapiens, UniProt P11712). Briefly: Inhibition of CYP2C9 at 50 uM. Type of series: ADME.
Series [3] can be described thus: Solubility of compound at pH 7.4. It is filed as physicochemical. The following applies: buffer.
Series [4] concerns Mus musculus. Nature of the series: Reduction in amyloid beta 42 level in Tg2576 mouse brain at 1 mg/kg, sc administered subchronically for 5 days. It is filed as functional. The arrangement: scale not given: the % may be the effect or the level left. The following applies: route subcutaneous.
The target of series [5] is Cytochrome P450 3A4 (Homo sapiens, UniProt P08684). Nature of the series: Inhibition of CYP3A4 at 50 uM. It is filed as ADME.
Series [6] concerns Mus musculus. Briefly: Reduction in amyloid beta 40 level in Tg2576 mouse brain at 20 mg/kg, sc. Type of series: functional. The arrangement: scale not given: the % may be the effect or the level left. The following applies: route subcutaneous.
Series [7] can be described thus: Selectivity ratio of EC50 for gamma-secretase assessed as Notch-1 cleavage to EC50 for gamma-secretase assessed as beta-CTF cleavage.
Series [8] deals with Mus musculus. Briefly: Reduction in amyloid beta 40 level in Tg2576 mouse brain at 1 mg/kg, sc administered subchronically for 5 days. Type of series: functional. Set-up: scale not given: the % may be the effect or the level left. The following applies: route subcutaneous.
Series [9] deals with Cytochrome P450 2D6 (Homo sapiens, UniProt P10635). Nature of the series: Inhibition of CYP2D6 at 50 uM. It is filed as ADME.
Series [10] can be described thus: Inhibition of gamma-secretase by Notch-1 cleavage assay.

Cytochrome P450 3A4, sequence (P08684 whole entry): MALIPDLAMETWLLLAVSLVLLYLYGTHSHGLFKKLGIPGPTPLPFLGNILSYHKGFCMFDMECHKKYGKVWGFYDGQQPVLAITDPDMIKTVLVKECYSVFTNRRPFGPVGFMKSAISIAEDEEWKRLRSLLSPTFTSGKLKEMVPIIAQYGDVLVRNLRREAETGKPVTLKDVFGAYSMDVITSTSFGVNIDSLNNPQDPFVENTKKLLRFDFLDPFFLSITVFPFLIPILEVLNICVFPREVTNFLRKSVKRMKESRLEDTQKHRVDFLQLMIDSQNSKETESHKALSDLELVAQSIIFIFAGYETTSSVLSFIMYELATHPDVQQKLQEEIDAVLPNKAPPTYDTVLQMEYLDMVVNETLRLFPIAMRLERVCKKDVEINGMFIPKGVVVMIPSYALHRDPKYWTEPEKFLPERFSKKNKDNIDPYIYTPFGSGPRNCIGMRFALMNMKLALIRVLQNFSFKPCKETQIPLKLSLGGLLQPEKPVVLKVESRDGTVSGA
Cytochrome P450 2C9, sequence (P11712 whole entry): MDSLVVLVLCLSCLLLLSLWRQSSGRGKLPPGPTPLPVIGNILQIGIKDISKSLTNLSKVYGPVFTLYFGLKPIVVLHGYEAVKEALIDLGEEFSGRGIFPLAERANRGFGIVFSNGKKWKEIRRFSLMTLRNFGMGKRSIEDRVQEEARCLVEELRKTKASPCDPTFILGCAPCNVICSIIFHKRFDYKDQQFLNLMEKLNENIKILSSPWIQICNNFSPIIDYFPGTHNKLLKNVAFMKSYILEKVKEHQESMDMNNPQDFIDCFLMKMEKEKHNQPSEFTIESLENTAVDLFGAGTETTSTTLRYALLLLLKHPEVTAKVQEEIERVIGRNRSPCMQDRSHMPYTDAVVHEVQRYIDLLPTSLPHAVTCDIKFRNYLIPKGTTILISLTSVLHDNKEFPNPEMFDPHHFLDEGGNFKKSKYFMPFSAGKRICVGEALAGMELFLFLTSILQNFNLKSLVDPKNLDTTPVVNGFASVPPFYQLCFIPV
Cytochrome P450 2D6, sequence (P10635 whole entry): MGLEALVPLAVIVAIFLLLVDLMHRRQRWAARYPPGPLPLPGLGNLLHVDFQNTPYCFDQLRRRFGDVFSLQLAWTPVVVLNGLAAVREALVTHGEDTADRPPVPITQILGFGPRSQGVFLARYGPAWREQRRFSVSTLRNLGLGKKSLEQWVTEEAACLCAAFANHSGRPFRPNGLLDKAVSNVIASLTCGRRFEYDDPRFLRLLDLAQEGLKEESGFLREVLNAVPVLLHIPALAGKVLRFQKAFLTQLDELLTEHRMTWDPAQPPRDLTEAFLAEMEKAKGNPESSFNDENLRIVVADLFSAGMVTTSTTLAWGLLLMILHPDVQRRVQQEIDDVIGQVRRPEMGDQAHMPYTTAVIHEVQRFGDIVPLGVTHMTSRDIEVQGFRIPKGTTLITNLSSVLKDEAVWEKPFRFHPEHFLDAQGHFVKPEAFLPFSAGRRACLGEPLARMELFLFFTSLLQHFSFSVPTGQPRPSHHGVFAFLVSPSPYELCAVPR

As to `CC(C)C[C@@H](C)[C@@H](CO)NS(=O)(=O)c1ccc(Cl)s1`, in [1], the EC50 was 115 nM.

`CCCCC[C@H](CC(C)C)[C@@H](CO)NS(=O)(=O)c1ccc(Cl)s1`: the 50% effective concentration (EC50) in [1] was found to be 20700 nM.

Turning to `CC[C@H](C)[C@@H](CO)NS(=O)(=O)c1ccc(Cl)s1`, the 50% effective concentration (EC50) in series [1] was found to be 170 nM.

Regarding `CC[C@H](C)[C@@H](CO)NS(=O)(=O)c1ccc(Cl)cc1`, the EC50 in [1] amounted to 5500 nM.

Regarding `CC[C@H](C)[C@@H](CO)NS(=O)(=O)c1cc(Cl)c(Cl)s1`, the EC50 in series [1] was 1050 nM.

Turning to `CCC[C@H](CC)[C@@H](CO)NS(=O)(=O)c1ccc(Cl)s1`, in series [1], the EC50 stood at 29 nM.

For `O=S(=O)(N[C@H](CO)C1CCNCC1)c1ccc(Cl)s1`, the EC50 in series [1] is above 30000 nM.

As to `CC[C@@H](C)[C@@H](CO)NS(=O)(=O)c1ccc(Cl)s1`, the concentration giving a half-maximal response (EC50) in [1] was found to be 140 nM.

On to `CC[C@H](C)[C@@H](CO)NS(=O)(=O)c1sc(Cl)cc1Br`, for which the EC50 in [1] was above 30000 nM.

Regarding `CCCCCC[C@@H](CCCCC)[C@@H](CO)NS(=O)(=O)c1ccc(Cl)s1`, the EC50 in series [1] is above 30000 nM.

As to `O=S(=O)(N[C@H](CO)C1CCCCC1)c1ccc(Cl)s1`, the EC50 in series [1] came to 820 nM.

As to `CC[C@H](C)[C@@H](CO)NS(=O)(=O)c1ccc(Br)cc1`, the EC50 in series [1] was determined as 2200 nM.

For `CC[C@H](CC(C)C)[C@@H](CO)NS(=O)(=O)c1ccc(Cl)s1`, the EC50 in series [1] is 28 nM.

For `CC(C)(C)[C@@H](CO)NS(=O)(=O)c1ccc(Cl)s1`, the EC50 in [1] was determined as 7500 nM.

For `CCC[C@H](C)[C@@H](CO)NS(=O)(=O)c1ccc(Cl)s1`, the EC50 in series [1] is 103 nM.

Take `CCCCC[C@H](c1ccccc1)[C@@H](CO)NS(=O)(=O)c1ccc(Cl)s1`: the EC50 in [1] is above 30000 nM.

As for `CCCCC[C@H](CC)[C@@H](CO)NS(=O)(=O)c1ccc(Cl)s1`, in [1], the EC50 turned out to be 72 nM.

Take `CCC[C@H](c1ccccc1)[C@@H](CO)NS(=O)(=O)c1ccc(Cl)s1`: the concentration giving a half-maximal response (EC50) in series [1] amounted to 4060 nM.

Take `CC[C@@H](C)[C@H](CO)NS(=O)(=O)c1ccc(Cl)s1`: the EC50 in series [1] came to 7600 nM.

On to `CCC(CC)[C@@H](CO)NS(=O)(=O)c1ccc(Cl)s1` [GSI-136], for which the Activity result in series [2] is “Not Active”; in [4] it was 15%; in series [5] it was “Not Active”; in series [6], 55%; in series [7], 9.5; in [8] it was 25%. Moreover, in series [9], the Activity entry is on record as “Not Active”. For the same compound, the solubility in [3] was found to be 0.037 µg/mL (≈ 0.119 µM). In addition, the results for the EC50 in series [10] and in series [1] were 266 nM and 28 nM, respectively.

As for `CCCC(CCC)[C@@H](CO)NS(=O)(=O)c1ccc(Cl)s1`, in series [1], the EC50 amounted to 111 nM.

On to `CCC[C@H](CC(C)C)[C@@H](CO)NS(=O)(=O)c1ccc(Cl)s1`, for which, in series [1], the half-maximal effective concentration (EC50) was found to be 253 nM.

Turning to `CCCCCC[C@@H](C)[C@@H](CO)NS(=O)(=O)c1ccc(Cl)s1`, the EC50 in [1] was 212 nM.

Regarding `CC(C)[C@@](C)(CO)NS(=O)(=O)c1ccc(Cl)s1`, the EC50 in [1] is 490 nM.

For `C[C@@H](c1ccccc1)[C@@H](CO)NS(=O)(=O)c1ccc(Cl)s1`, the EC50 in [1] was 3910 nM.

As to `CC[C@H](C)[C@@H](CO)NS(=O)(=O)c1ccccc1`, the concentration for a half-maximal effect (EC50) in [1] is 4700 nM.

Take `CC[C@H](C)[C@@H](CO)NS(=O)(=O)c1ccc(Cl)o1`: the EC50 in series [1] is above 30000 nM.

With `CCCCCC[C@@H](CCC)[C@@H](CO)NS(=O)(=O)c1ccc(Cl)s1`, in [1], the EC50 came to 826 nM.

Take `O=S(=O)(N[C@H](CO)C1CCCC1)c1ccc(Cl)s1`: the EC50 in series [1] came out at 580 nM.

In the case of `CC(C)[C@@H](CO)NS(=O)(=O)c1ccc(Cl)s1`, in series [1], the EC50 amounted to 820 nM.

In the case of `CCCCCC[C@@H](CC)[C@@H](CO)NS(=O)(=O)c1ccc(Cl)s1`, in [1], the EC50 was found to be 43 nM.

Take `CC[C@H](C)[C@@H](CO)NS(=O)(=O)c1ccc(F)s1`: the EC50 in [1] was found to be 460 nM.

As for `CCCCC(CCCC)[C@@H](CO)NS(=O)(=O)c1ccc(Cl)s1`, the EC50 in [1] is 4180 nM.

In the case of `CC[C@H](C)[C@@H](CO)NS(=O)(=O)c1ccc(Br)s1`, the EC50 in [1] came to 160 nM.

For `CC[C@H](C)[C@@H](CO)NS(=O)(=O)c1cccs1`, the EC50 in series [1] was 7000 nM.

Regarding `CCCCCC[C@H](CC)[C@@H](CO)NS(=O)(=O)c1ccc(Cl)s1`, the EC50 in series [1] came out at 429 nM.

As to `CCCCCC[C@@H](C(C)C)[C@@H](CO)NS(=O)(=O)c1ccc(Cl)s1`, the half-maximal effective concentration (EC50) in series [1] amounted to 71 nM.

As for `O=S(=O)(N[C@H](CO)C(c1ccccc1)c1ccccc1)c1ccc(Cl)s1`, in [1], the EC50 was above 30000 nM.

With `CC(C)C[C@@H](CO)NS(=O)(=O)c1ccc(Cl)s1`, in series [1], the EC50 was above 30000 nM.

Consider `CCCCC[C@H](C)[C@@H](CO)NS(=O)(=O)c1ccc(Cl)s1`, for which the EC50 in series [1] came out at 264 nM.
